System: human endothelial cells
Assay: Fenofibrate time-course microarray in human endothelial cells, GO Term Finder clusters of selected genes
Conditions: 25 μM fenofibrate, 18 hours microarray

CC(C)OC(=O)C(C)(C)Oc1ccc(C(=O)c2ccc(Cl)cc2)cc1 [fenofibrate]
# genes in GO annotation: cellular lipid metabolism (GO:0044255) (overexpressed genes): 21
# genes in GO annotation: cholesterol biosynthesis (GO:0006695) (overexpressed genes): 5
# genes in GO annotation: cholesterol metabolism (GO:0008203) (overexpressed genes): 7
# genes in GO annotation: lipid metabolism (GO:0006629) (overexpressed genes): 25
# genes in GO annotation: steroid biosynthesis (GO:0006694) (overexpressed genes): 7
# genes in GO annotation: steroid metabolism (GO:0008202) (overexpressed genes): 10
# genes in GO annotation: sterol biosynthesis (GO:0016126) (overexpressed genes): 6
# genes in GO annotation: sterol metabolism (GO:0016125) (overexpressed genes): 8
# genes in GO annotation: M phase (GO:0000279) (suppressed genes): 17
# genes in GO annotation: M phase of mitotic cell cycle (GO:0000087) (suppressed genes): 15
# genes in GO annotation: RNA splicing, via transesterification reactions (GO:0000375) (suppressed genes): 9
# genes in GO annotation: RNA splicing, via transesterification reactions with bulged adenosine as nucleophile (GO:0000377) (suppressed genes): 9
# genes in GO annotation: cell cycle (GO:0007049) (suppressed genes): 35
# genes in GO annotation: mRNA metabolism (GO:0016071) (suppressed genes): 13
# genes in GO annotation: mitosis (GO:0007067) (suppressed genes): 15
# genes in GO annotation: mitotic cell cycle (GO:0000278) (suppressed genes): 19
# genes in GO annotation: nuclear mRNA splicing, via spliceosome (GO:0000398) (suppressed genes): 9
# genes in GO annotation: regulation of cell cycle (GO:0000074) (suppressed genes): 22

Source: US20080220977A1, “Computational strategy for discovering druggable gene networks from genome-wide RNA expression profiles” (GNI Ltd., priority 2005, published 2008)
